Results reported in US20090137652A1, “METHODS FOR NEUROPROTECTION” (priority 2005, published 2009).
Marks after values point to notes of the source that are not given here.

Key:
Format in all cases: in vivo, rat
[1] = test system: rats subjected to Li-pilo induced SE; test: Latency to and frequency of spontaneous recurrent seizures (SRS), lithium-pilocarpine model (Example 1); settings: for frequency of stage IV-V SRS: significantly reduced vs pilo-DZP
Experimental: All rats received lithium chloride (3 meq/kg, i.p., Sigma, St Louis, Mo., U.S.A.); about 20 h later, animals were placed into plexiglas boxes, in order to record baseline cortical EEG. Methylscopolamine bromide (1 mg/kg, s.c., Sigma) was administered to limit the peripheral effects of the convulsant. SE was induced by injecting pilocarpine hydrochloride (25 mg/kg, s.c., Sigma) 30 min after methyl-scopolamine. The bilateral EEG cortical activity was recorded during the whole duration of SE and behavioral changes were noted.
The effects of increasing doses of the test compound were studied on 3 groups of rats. The animals of the first group received 10 mg/kg of the test compound, i.p., 1 h after the onset of SE (pilo-TC10) while the animals of groups 2 and 3 received 30 and 60 mg/kg of the test compound (pilo-TC30 and pilo-TC60), respectively.
Another group was injected with 2 mg/kg diazepam (DZP, i.m.) at 1 h after the onset of SE. This is a standard treatment to improve animals survival after SE (pilo-DZP). The control group received saline instead of pilocarpine and the test compound (saline-saline). The pilo-test compound rats surviving SE were then injected about 10 h after the first test compound injection with a second i.p. injection of the same dose of the test compound and were maintained under a twice daily treatment with the test compound for 6 additional days. Pilo-DZP received a second injection of 1 mg/kg DZP on the day of SE at about 10 h after the first one. Thereafter, Pilo-DZP and saline-saline rats received twice daily an equivalent volume of saline.
The effects of the test compound on the EEG and on the latency to occurrence of SRS were investigated by daily video recording of the animals for 10 h per day and the recording of the electrographic activity twice a week for 8 h.
To calculate the frequency of SRS in pilocarpine-exposed rats, the seizure severity and distinguished stage III (clonic seizures of facial muscles and anterior limbs) and stage IV-V seizures (rearing and falling) was considered. The frequency of stage III SRS per week in pilo-DZP and pilo-test compound rats was variable amongst the groups. It was low, constant in the pilo-DZP and pilo-TC60 (with early SRS onset) groups during the first 3 weeks and had disappeared during the 4th week in the pilo-DZP group. […] The frequency of more severe stage IV-V SRS was highest during the first week in most groups, except pilo-TC30 and TC60 with late seizure onset where the SRS frequency was constant over the whole 4 weeks in TC30 group and over the first two weeks in the pilo-TC60 group with late SRS onset in which no stage IV-V seizures where no seizures recorded after the second week.

[2] = test system: rats subjected to li-pilo SE; test: Quantification of cell densities 14 days after lithium-pilocarpine SE (Example 2); settings: 14 days after SE
Experimental: All rats received lithium chloride (3 meq/kg, i.p., Sigma, St Louis, Mo., U.S.A.) and about 20 h later, all animals received also methylscopolamine bromide (1 mg/kg, s.c., Sigma) that was administered to limit the peripheral effects of the convulsant. SE was induced by injecting pilocarpine hydrochloride (25 mg/kg, s.c., Sigma) 30 min after methylscopolamine. The effects of increasing doses of TC (RWJ) were studied in 5 groups of rats. […] The control group received vehicle instead of pilocarpine and TC.
At the moment, neuronal counting is still in progress in the second group of animals studied for epileptogenesis and long-term counting and the data concerning that part of the study will not be included in the present report. For neuronal counting, animals were deeply anesthetized with […] pentobarbital (Dolethal®, Vetoquinol, Lure, France). Brains were then removed and frozen. Serial 20 μm slices were cut in a cryostat, air-dried during several days before thionine staining. […] The grid of counting was placed on a well defined area of the cerebral structure of interest and counting was carried out with a microscopic enlargement of 200- or 400-fold defined for each single cerebral structure. Cell counts were performed twice on each side of three adjacent sections for each region by a single observer unaware of the animal's treatment. The number of cells obtained in the 12 counted fields in each cerebral structure was averaged. This procedure was used to minimize the potential errors that could result from double counting leading to overestimation of cell numbers. […] Counts involved only neurons with cell bodies larger than 10 μm. Cells with small cell bodies were considered as glial cells and were not counted.
For neuronal damage and epileptogenesis, statistical analysis between groups was performed by means of a one-way analysis of variance followed by a post-hoc Dunnett or Fisher test using the Statistica software.

[3] = test system: rats subjected to li-pilo SE; test: Latency to and frequency of spontaneous seizures by video recording, lithium-pilocarpine model (Example 2); settings: pilo-TC90 (90 mg/kg), Non epileptic subgroup (n = 5), no seizure over 150 days post-SE

## NC(=O)OC[C@@H](O)c1ccccc1Cl [Formula 7]
[1]; TC 60 mg/kg, subgroup of animals with delayed SRS
  mean delay to becoming epileptic relative to the other groups of animals: about 9 fold
[1]; TC 60 mg/kg, 4 out of 11
  rats in which occurrence of spontaneous seizures was delayed: 36%
[1]; TC10, TC30 and TC60 (with early SRS onset) groups, first week
  frequency of stage IV-V SRS: 2.3-6.1 SRS per week
[1]; TC60 (60 mg/kg)
  absence of epilepsy: one rat did not become epileptic in a delay of 9 months post-SE
[1]; TC60 (60 mg/kg), subgroup with latency similar to other groups, n=7
  latency to SRS: 17.6 ± 8.7 days
[1]; TC60 (60 mg/kg), subgroup with much longer delay, mean, n=4
  latency to SRS: 149.8 ± 36.0 days
[1]; pilo-TC10 (10 mg/kg, 7-day treatment), n=7
  latency to SRS: 15.4 ± 5.1 days
[1]; pilo-TC10, weeks 3 and 4
  frequency of stage III SRS: significantly increased over pilo-DZP values
[1]; pilo-TC30 (30 mg/kg, 7-day treatment), n=10
  latency to SRS: 18.9 ± 9.0 days
[1]; pilo-TC60 group with early SRS onset, weeks 2-4
  frequency of stage IV-V SRS: 0.6-0.9 seizure per week
[2]; TC 60 mg/kg, significant vs DZP
  neuronal drop out, layer II of the dorsal piriform cortex: 25%
[2]; TC 90 mg/kg
  damage remaining, ventral entorhinal cortex layer II: 4%
  damage remaining, ventral entorhinal cortex layers III/IV: 17%
[2]; TC 120 mg/kg
  neuronal density as % of control levels, piriform cortex: 78-96%
  neurons surviving, all parts of the entorhinal cortex: 85-94%
[2]; TC30, 60 or 90 rats, significant vs DZP
  cell loss, CA1 pyramidal cell layer: 36-47%
[2]; TC120 group, not significant vs DZP
  neuronal loss, hilus of the dentate gyrus: 53%
[2]; TC120 group, significant vs DZP
  cell loss, CA1 pyramidal cell layer: 12%
[2]; TC120 rats
  neuronal drop out, thalamic nuclei: 4-19%
[2]; TC highest dose (120 mg/kg)
  number of neurons as % of the control level, all amygdala nuclei: 86-99%
[2]; pilo-TC30 (30 mg/kg), n = 8
  number of neuronal cell bodies, Amygdala, Basolateral: 27.3 ± 4.9**°
  number of neuronal cell bodies, Amygdala, Medial, dorsal anterior: 46.8 ± 5.0
  number of neuronal cell bodies, Amygdala, Medial, ventral posterior: 22.3 ± 1.8
  number of neuronal cell bodies, Cerebral cortex, Entorhinal, layer II, dorsal: 23.4 ± 0.6
  number of neuronal cell bodies, Cerebral cortex, Entorhinal, layer II, ventral: 22.7 ± 0.9
  number of neuronal cell bodies, Cerebral cortex, Entorhinal, layer III/IV, dorsal: 22.3 ± 0.5
  number of neuronal cell bodies, Cerebral cortex, Entorhinal, layer III/IV, ventral: 13.2 ± 1.9
  number of neuronal cell bodies, Cerebral cortex, Piriform, layer II, dorsal: 15.7 ± 2.9
  number of neuronal cell bodies, Cerebral cortex, Piriform, layer II, ventral: 7.2 ± 3.8
  number of neuronal cell bodies, Cerebral cortex, Piriform, layer III: 1.8 ± 1.8
  number of neuronal cell bodies, Hippocampus, CA1 area: 39.3 ± 4.4**°°
  number of neuronal cell bodies, Hippocampus, CA3 area: 35.7 ± 1.8
  number of neuronal cell bodies, Hippocampus, Hilus: 33.0 ± 3.2
  number of neuronal cell bodies, Thalamus, Central medial: 75.6 ± 7.7
  number of neuronal cell bodies, Thalamus, Dorsolateral, medial, dorsal: 64.2 ± 9.3**°°
  number of neuronal cell bodies, Thalamus, Dorsolateral, ventral lateral: 8.8 ± 2.8
  number of neuronal cell bodies, Thalamus, Mediodorsal central: 26.9 ± 0.6
  number of neuronal cell bodies, Thalamus, Mediodorsal lateral: 20.5 ± 0.7
  number of neuronal cell bodies, Thalamus, Mediodorsal medial: 11.5 ± 2.5
[2]; pilo-TC60 (60 mg/kg), n = 11
  number of neuronal cell bodies, Amygdala, Basolateral: 27.8 ± 4.3**°°
  number of neuronal cell bodies, Amygdala, Medial, dorsal anterior: 58.4 ± 2.8**°
  number of neuronal cell bodies, Amygdala, Medial, ventral posterior: 26.2 ± 2.9
  number of neuronal cell bodies, Cerebral cortex, Entorhinal, layer II, dorsal: 23.9 ± 0.5
  number of neuronal cell bodies, Cerebral cortex, Entorhinal, layer II, ventral: 23.3 ± 0.8
  number of neuronal cell bodies, Cerebral cortex, Entorhinal, layer III/IV, dorsal: 23.2 ± 0.8
  number of neuronal cell bodies, Cerebral cortex, Entorhinal, layer III/IV, ventral: 16.5 ± 2.2
  number of neuronal cell bodies, Cerebral cortex, Piriform, layer II, dorsal: 27.5 ± 2.8**°°
  number of neuronal cell bodies, Cerebral cortex, Piriform, layer II, ventral: 13.7 ± 4.2
  number of neuronal cell bodies, Cerebral cortex, Piriform, layer III: 6.4 ± 2.3
  number of neuronal cell bodies, Hippocampus, CA1 area: 31.9 ± 4.4**°°
  number of neuronal cell bodies, Hippocampus, CA3 area: 31.6 ± 1.4
  number of neuronal cell bodies, Hippocampus, Hilus: 32.8 ± 3.3
  number of neuronal cell bodies, Thalamus, Central medial: 83.7 ± 9.6
  number of neuronal cell bodies, Thalamus, Dorsolateral, medial, dorsal: 77.5 ± 3.9**°°
  number of neuronal cell bodies, Thalamus, Dorsolateral, ventral lateral: 56.7 ± 8.7
  number of neuronal cell bodies, Thalamus, Mediodorsal central: 24.1 ± 1
  number of neuronal cell bodies, Thalamus, Mediodorsal lateral: 18.9 ± 0.6
  number of neuronal cell bodies, Thalamus, Mediodorsal medial: 19.1 ± 2.6
[2]; pilo-TC90 (90 mg/kg), n = 10
  number of neuronal cell bodies, Amygdala, Basolateral: 40.7 ± 1.6°°
  number of neuronal cell bodies, Amygdala, Medial, dorsal anterior: 72.2 ± 5.7°°
  number of neuronal cell bodies, Amygdala, Medial, ventral posterior: 30.7 ± 3.7°°
  number of neuronal cell bodies, Cerebral cortex, Entorhinal, layer II, dorsal: 26.3 ± 0.9
  number of neuronal cell bodies, Cerebral cortex, Entorhinal, layer II, ventral: 25.4 ± 1.1°
  number of neuronal cell bodies, Cerebral cortex, Entorhinal, layer III/IV, dorsal: 26.7 ± 0.8
  number of neuronal cell bodies, Cerebral cortex, Entorhinal, layer III/IV, ventral: 23.7 ± 1.5°°
  number of neuronal cell bodies, Cerebral cortex, Piriform, layer II, dorsal: 32.4 ± 1.1°°
  number of neuronal cell bodies, Cerebral cortex, Piriform, layer II, ventral: 18.4 ± 4.0°°
  number of neuronal cell bodies, Cerebral cortex, Piriform, layer III: 9 ± 3.0°°
  number of neuronal cell bodies, Hippocampus, CA1 area: 47.7 ± 6.6*°
  number of neuronal cell bodies, Hippocampus, CA3 area: 35.1 ± 2.9
  number of neuronal cell bodies, Hippocampus, Hilus: 37.5 ± 3.1
  number of neuronal cell bodies, Thalamus, Central medial: 88.2 ± 8.5
  number of neuronal cell bodies, Thalamus, Dorsolateral, medial, dorsal: 79.4 ± 3.1**°°
  number of neuronal cell bodies, Thalamus, Dorsolateral, ventral lateral: 71.8 ± 5.3°°*
  number of neuronal cell bodies, Thalamus, Mediodorsal central: 27.4 ± 1.5
  number of neuronal cell bodies, Thalamus, Mediodorsal lateral: 22 ± 1.2*°
  number of neuronal cell bodies, Thalamus, Mediodorsal medial: 23.1 ± 2.8°°
[2]; pilo-TC120 (120 mg/kg), n = 8
  number of neuronal cell bodies, Amygdala, Basolateral: 42.7 ± 1.3°°
  number of neuronal cell bodies, Amygdala, Medial, dorsal anterior: 80.2 ± 2.6°°
  number of neuronal cell bodies, Amygdala, Medial, ventral posterior: 34.7 ± 1.7°°
  number of neuronal cell bodies, Cerebral cortex, Entorhinal, layer II, dorsal: 27.3 ± 0.5°°
  number of neuronal cell bodies, Cerebral cortex, Entorhinal, layer II, ventral: 25.1 ± 0.6
  number of neuronal cell bodies, Cerebral cortex, Entorhinal, layer III/IV, dorsal: 26.4 ± 0.7°°
  number of neuronal cell bodies, Cerebral cortex, Entorhinal, layer III/IV, ventral: 24.5 ± 1.4°°
  number of neuronal cell bodies, Cerebral cortex, Piriform, layer II, dorsal: 35.2 ± 1.1°°
  number of neuronal cell bodies, Cerebral cortex, Piriform, layer II, ventral: 30.5 ± 1.3°°
  number of neuronal cell bodies, Cerebral cortex, Piriform, layer III: 15 ± 2.2°°
  number of neuronal cell bodies, Hippocampus, CA1 area: 65.5 ± 2.9°°
  number of neuronal cell bodies, Hippocampus, CA3 area: 39.8 ± 1.5
  number of neuronal cell bodies, Hippocampus, Hilus: 44.8 ± 2.9
  number of neuronal cell bodies, Thalamus, Central medial: 108.2 ± 6.6°
  number of neuronal cell bodies, Thalamus, Dorsolateral, medial, dorsal: 89.8 ± 3.7*°
  number of neuronal cell bodies, Thalamus, Dorsolateral, ventral lateral: 79.0 ± 4.7°°
  number of neuronal cell bodies, Thalamus, Mediodorsal central: 29.9 ± 1.7°
  number of neuronal cell bodies, Thalamus, Mediodorsal lateral: 24.4 ± 1.1°°
  number of neuronal cell bodies, Thalamus, Mediodorsal medial: 28.6 ± 0.8°°
[3]
  Latency to the first spontaneous seizure: 150** °° days
